Results as given in US20230131966A1, “FUNGICIDAL AMIDES” (FMC Corporation, priority 2020, published 2023).

Key:
Type in all cases: in vivo
Phakopsora pachyrhizi = test: Test A: Asian soybean rust control on soybean seedlings; settings: soybean seedlings, 100 = 100% disease control, 0 = no control
[1] = system: Puccinia recondita f. sp. tritici; test: Test B: wheat leaf rust control on wheat seedlings; settings: wheat seedlings, 100 = 100% disease control, 0 = no control
Zymoseptoria tritici = test: Test C: wheat leaf blotch control on wheat seedlings; settings: wheat seedlings, 100 = 100% disease control, 0 = no control
Plasmopara viticola = test: Test D: grape downy mildew control on grape seedlings; settings: 100 = 100% disease control, 0 = no control
Botrytis cinerea = test: Test E: tomato Botrytis control on tomato seedlings; settings: 100 = 100% disease control, 0 = no control
Phytophthora infestans = test: whole plant or invertebrate; settings: tomato seedlings, 100 = 100% disease control, 0 = no control
[2] = system: Erysiphe graminis f. sp. tritici; test: Test G: wheat powdery mildew control on wheat seedlings; settings: 100 = 100% disease control, 0 = no control

SMILES	Test A disease control rating (Phakopsora pachyrhizi; 250 ppm)	Test B disease control rating ([1]; 250 ppm)	Test C disease control rating (Zymoseptoria tritici; 250 ppm)	Test D disease control rating (Plasmopara viticola; 250 ppm)	Test E disease control rating (Botrytis cinerea; 250 ppm)	Test F disease control rating (Phytophthora infestans; 250 ppm)	Test G disease control rating ([2]; 250 ppm)	also measured
COc1ccnc(C(=O)NC(C)C(=O)OC(C)c2ccc(F)cc2Cc2ccccc2)c1O (mixture of isomers) [Compound 12]	99%	97%	0%	83%	0%	0%	0%	
COc1ccnc(C(=O)NC(C)C(=O)OC(C)c2ccccc2Cc2ccc(F)cc2)c1O (mixture of isomers) [Compound 13]	100%	100%	73%	50%	0%	0%	0%	
COc1ccnc(C(=O)NC(C)C(=O)OC(C)c2ccc(F)cc2)c1OC(C)=O (mixture of isomers) [Compound 15]	75%	19%	69%	39%	0%	0%	0%	
COc1ccnc(C(=O)NC(C)C(=O)OC(C)c2ccccc2[N+](=O)[O-])c1O (mixture of isomers) [Compound 16]	13%	0%	76%	59%	0%	0%	0%	
COc1ccnc(C(=O)NC(C)C(=O)OC(C)c2ccccc2C(F)(F)F)c1O (mixture of isomers) [Compound 17]								Test A disease control rating (Phakopsora pachyrhizi; 150 ppm): 66%; Test B disease control rating ([1]; 150 ppm): 41%; Test C disease control rating (Zymoseptoria tritici; 150 ppm): 92%; Test D disease control rating (Plasmopara viticola; 150 ppm): 23%; Test E disease control rating (Botrytis cinerea; 150 ppm): 0%; Test F disease control rating (Phytophthora infestans; 150 ppm): 0%; Test G disease control rating ([2]; 150 ppm): 0%
COc1ccnc(C(=O)NC(C)C(=O)OC(C)c2ccccc2C(F)(F)F)c1OC(C)=O (mixture of isomers) [Compound 18]	62%	68%	93%	35%	0%	0%	0%	
COc1ccnc(C(=O)NC(C)C(=O)OC(C)c2ccc([N+](=O)[O-])cc2)c1OC(C)=O (mixture of isomers) [Compound 20]	0%	68%	64%	4%	0%	0%	0%	
COc1ccnc(C(=O)NC(C)C(=O)OC(C)c2ccccc2-n2ccc(C(F)(F)F)n2)c1OC(C)=O (mixture of isomers) [Compound 25]	97%	0%	17%	41%	0%	0%	0%	
COc1ccnc(C(=O)NC(C)C(=O)OC(C)c2ccccc2-n2ccc(C(F)(F)F)n2)c1O (mixture of isomers) [Compound 26]	73%	0%	47%	43%	0%	0%	0%	
COc1ccnc(C(=O)NC(C)C(=O)OC(C)c2cccc(-n3ccc(C(F)(F)F)n3)c2)c1OC(C)=O (mixture of isomers) [Compound 27]	98%	99%	81%	38%	0%	0%	0%	
COc1ccnc(C(=O)NC(C)C(=O)OC(C)c2ccc(F)cc2Cc2ccc(F)cc2)c1O (mixture of isomers) [Compound 42]	100%	100%		66%	0%	0%	0%	
COc1ccnc(C(=O)NC(C)C(=O)OC(C)c2ccccc2Oc2ccc(F)cc2)c1O (mixture of isomers) [Compound 55]	100%	98%		52%	0%	0%	13%	
COc1ccnc(C(=O)NC(C)C(=O)OC(C)C2CCC(C(F)(F)F)CC2)c1O (mixture of isomers) [Compound 179]	100%	100%	99%	82%	0%	0%		
COc1ccnc(C(=O)N[C@@H](C)C(=O)OC(C)c2ccc(F)cc2Cc2ccc(F)cc2)c1O (single isomer, unassigned) [Compound 41]	100%	100%		70%	0%	24%	0%	
COc1ccnc(C(=O)N[C@@H](C)C(=O)OC(C)c2ccc(F)cc2Cc2ccc(F)cc2)c1O (single isomer, unassigned) [Compound 54]	79%	68%		55%	0%	0%	0%	
COc1ccnc(C(=O)N[C@@H](C)C(=O)OC(C)c2ccccc2Oc2ccc(F)cc2)c1O (single isomer, unassigned) [Compound 59]	100%	100%		66%	0%	0%	13%	
COc1ccnc(C(=O)N[C@@H](C)C(=O)OC(C)c2ccc(C3CCCCC3)cc2)c1OC(C)=O (single isomer, unassigned) [Compound 86]	73%		65%	24%	0%	0%	0%	
COc1ccnc(C(=O)N[C@@H](C)C(=O)OC(C)C2CCCCC2)c1OC(C)=O (single isomer, unassigned) [Compound 88]	99%		58%	43%	0%	0%	0%	
COc1ccnc(C(=O)N[C@@H](C)C(=O)OC(C)c2ccccc2Cc2ccccc2)c1OC(C)=O (single isomer, unassigned) [Compound 110]	100%	99%	92%		0%	0%	0%	
COc1ccnc(C(=O)N[C@@H](C)C(=O)OC(C)c2ccccc2Cc2ccccc2)c1O (single isomer, unassigned) [Compound 111]	97%	9%	56%		16%	0%	0%	
COc1ccnc(C(=O)N[C@@H](C)C(=O)OC(C)c2ccccc2Cc2ccccc2)c1OC(C)=O (single isomer, unassigned) [Compound 112]	0%	55%	83%		0%	0%	0%	
COc1ccnc(C(=O)N[C@@H](C)C(=O)OC(C)c2cccc3ccccc23)c1OC(C)=O (single isomer, unassigned) [Compound 115]	89%	55%	86%		0%	0%	0%	
COc1ccnc(C(=O)N[C@@H](C)C(=O)O[C@@H](C)C2CCCCC2)c1OC(C)=O [Compound 87, N-[[3-(acetyloxy)-4-methoxy-2-pyridinyl]carbonyl]-L-alanine (1S)-1-cyclohexylethyl ester]								pest or weed control at 250 ppm (Phakopsora pachyrhizi; Phakopsora pachyrhizi, 250 ppm, read-out: Test A disease control rating): 100%; pest or weed control at 250 ppm (Zymoseptoria tritici; Zymoseptoria tritici, 250 ppm, read-out: Test C disease control rating): 95%; pest or weed control at 250 ppm (Plasmopara viticola; Plasmopara viticola, 250 ppm, read-out: Test D disease control rating): 21%; pest or weed control at 250 ppm (Botrytis cinerea; Botrytis cinerea, 250 ppm, read-out: Test E disease control rating): 0%; pest or weed control at 250 ppm (Phytophthora infestans; Phytophthora infestans, in Solanum lycopersicum, read-out: Test F disease control rating, 250 ppm): 47%; pest or weed control at 250 ppm ([2]; Blumeria graminis, 250 ppm, read-out: Test G disease control rating): 0%
